Laboratory results from ChEMBL document CHEMBL1151371, “Plant Anticancer Agents. XI. 2,6-Dimethoxybenzoquinone as a Cytotoxic Constituent of Tibouchina pulchra” (1981).
Values after ≈ are worked out from the molar mass of the structure shown.

Test system: KB
Test: Cytotoxicity against human KB cells
Assay type: functional
Details: read-out: ED50 (the source's name)

Structure (SMILES): COC1=CC(=O)C=C(OC)C1=O [2,6-DIMETHOXYQUINONE]
- EC50: 3.1 µg/mL (≈ 18.4 µM)
